Patent publication US4880791A, “Combination product composed of xanthine derivatives and O-acetylsalicylic acid or its pharmacologically tolerated salts, and its use” (priority 1984, dated 1989)

Experiments:
[1] = system: laser-induced thrombosis in the arterioles and venules of the rat mesentery; test: laser-induced thrombosis in arterioles of the rat mesentery; type: in vivo, rat (female Sprague-Dawley); conditions: for percentage improvement compared with the placebo controls: 10 mg/kg xanthine derivative and, 1 hour later, 1 mg/kg acetylsalicylic acid orally; for percentage improvement compared with the placebo controls / inhibition in vivo at 10 mg/kg: n = 3; for inhibition in vivo at 10 mg/kg: Rattus norvegicus, po, 10 mg/kg xanthine derivative orally, read-out: percentage improvement compared with the placebo controls; for Changes from controls, % / Changes from controls, absolute / Number of shots: single substance
Description: The evaluation was carried out by analysis by vital microscopy (Nature, 218 (1968) 887 and Haemostasis 13 (1983) 61 and IRCS Med. Sci. 12 (1984) 91).
The test substances were administered in 0.9% sodium chloride solution (which contained 1% carboxymethylcellulose (Serva, Heidelberg)) either orally, intraperitoneally or intravenously. Control animals were treated in the corresponding manner but without the test substances. The experimental animals used were male or female Sprague-Dawley or Wistar rats.
The animals which were to be investigated underwent s.c. premedication with 0.1 mg of atropine sulfate in solution and were anesthetized with 100 mg of ketamine hydrochloride and 4 mg of xylazine per kg of body weight i.p. The investigation made use of arterioles and venules of the mesentery, which was coated with degassed liquid paraffin, having a diameter of about 13 μm. The beam of a 4 W argon laser (supplied by Spectra Physics, Darmstadt) was introduced coaxially, by means of a beam adaptation and adjustment system (supplied by BTG, Munich), into the inverted optical path of a microscope (ICM 405, LD-Epipland 40/0.60; supplied by Zeiss, Oberkochen). The wavelength used was 514.5 nm, with an energy above the objective of 30.5 mW. The exposure time per single shot was 1/15 sec. All the measuring operations were recorded by video camera (Trinicon tube, Sony, Cologne) and stored in a recorder (Sony, U-matic 3/4"). The test substances were administered in various doses to the experimental animals, orally one hour, and on i.v. administration 10 min., before the start of the experiment, control animals receiving the same amount of placebo.
The number of shots needed to induce a defined thrombus is counted.
The results of the experiment were subjected to statistical analysis using the .chi.^2 test (L. Cavalli-Sforza, Biometrie (Biostatistics), Stuttgart, 1969, pages 49 et seq.). […]

platelet aggregation = test: ex vivo platelet aggregation (arachidonic acid, Born aggregometer); type: in vivo, rabbit
[2] = system: erythrocyte filterability; test: erythrocyte filterability in adjuvant arthritis rats; type: in vivo, rat; conditions: oral 21 days
Description: (§1) The hemorheological, antithrombotic, antiaggregatory and antiinflammatory effects of the combinations according to the invention were investigated after oral administration for 21 days in the pathological model of adjuvant arthritis (induced with Mycobacterium butyricum) is the rat by the method of Clincal Hemorheology 3 (1983) 469-480, and were compared with those of the appropriate individual substances. Blood was taken from the thoracic aorta 1 hour after the last administration of substance. All the details of the determination of the hemorheological effect were as described in Clinical Hemorheology 4 (1984) 263-273. The erythocyte deformability was quantitatively determined in a filtrometer (Myrenne MF 4, Roetgen, Germany) by evaluation of the initial gradient of the flow curve.

[3] = system: tendency to thrombosis in arthritic rat; test: laser-induced tendency to thrombosis in arthritic rats; type: in vivo; conditions: 30 mg, oral 21 days
Description: as §1
The antithrombotic effect was measured using the laser model as described above.

[4] = system: induced platelet aggregation; test: collagen-induced platelet aggregation in arthritic rats; type: in vivo, rat; conditions: 30 mg, oral 21 days
Description: as §1
The measurements of platelet aggregation were carried out as described above in detail. However, instead of arachidonic acid 0.04 mg of collagen was used to induce platelet aggregation in 1 ml of platelet-rich plasma (PA II aggregometer from Myrenne, Roetgen).

[5] = system: adjuvant arthritis (Mycobacterium butyricum) in the rat; test: antiinflammatory effect in adjuvant arthritis (paw edema, necrosis index); type: in vivo; conditions: 30 mg
Description: as §1
The antiflammatory effect was quantitatively measured, as quoted above, using the volume of the edema of the paw and using the standard necrosis index.

erythrocytes = conditions: treatment with pentoxifylline; cited from earlier work
platelets = conditions: only at concentrations above those used in medicinal treatment; cited from earlier work
rat aortas = rat aortas ex vivo, treatment of the animals; cited from earlier work

SMILES: CC(C)Cn1c(=O)c2c(ncn2CCCCC(C)O)n(C)c1=O (stereo not drawn) [1-(2-Methylpropyl)-3-methyl-7-(5-hydroxyhexyl)-xanthine]
- percentage improvement compared with the placebo controls [1]: 39%
- inhibition in vivo at 10 mg/kg [1]: 29%

SMILES: CC(=O)CCCCn1cnc2c1c(=O)n(CC(C)C)c(=O)n2C [1-(2-Methylpropyl)-3-methyl-7-(5-oxohexyl-)-xanthine]
- percentage improvement compared with the placebo controls [1]: 39%
- inhibition in vivo at 10 mg/kg [1]: 28%

SMILES: CC(C)CCn1c(=O)c2c(ncn2CCCCC(C)O)n(C)c1=O (stereo not drawn) [1-(3-Methylbutyl)-3-methyl-7-(5-hydroxyhexyl-)-xanthine]
- percentage improvement compared with the placebo controls [1]: 37%
- inhibition in vivo at 10 mg/kg [1]: 28%

SMILES: CC(=O)CCCCn1cnc2c1c(=O)n(CCC(C)C)c(=O)n2C [1-(3-Methylbutyl-3-methyl-7-(5-oxo-hexyl)-xanthine]
- percentage improvement compared with the placebo controls [1]: 35%
- inhibition in vivo at 10 mg/kg [1]: 26%

SMILES: CCCn1cnc2c1c(=O)n(CCC(C)=O)c(=O)n2C [1-(3-Oxobutyl)-3-methyl-7-propyl-xanthine]
- percentage improvement compared with the placebo controls [1]: 49%
- inhibition in vivo at 10 mg/kg [1]: 40%

SMILES: CC(O)CCCCn1c(=O)c2c(ncn2C)n(C)c1=O (stereo not drawn) [1-(5-Hydroxyhexyl)-3,7-dimethyl-xanthine, 1-(5-hydroxyhexyl)-3,7-dimethylxanthine]
- percentage improvement compared with the placebo controls [1]: 68%
- inhibition in vivo at 10 mg/kg [1]: 52%

SMILES: CC(C)Cn1cnc2c1c(=O)n(CCCCC(C)O)c(=O)n2C (stereo not drawn) [1-(5-Hydroxyhexyl)-3-methyl-7-(2-methyl-propyl)-xanthine]
- percentage improvement compared with the placebo controls [1]: 34%
- inhibition in vivo at 10 mg/kg [1]: 23%

SMILES: CCCn1cnc2c1c(=O)n(CCCCC(C)O)c(=O)n2C (stereo not drawn) [1-(5-Hydroxyhexyl)-3-methyl-7-propylxanthine]
- percentage improvement compared with the placebo controls [1]: 53%
- inhibition in vivo at 10 mg/kg [1]: 40%

SMILES: CC(=O)CCCCn1c(=O)c2c(ncn2CC(C)C)n(C)c1=O [1-(5-Oxohexyl)-3-methyl-7-(2-methyl-propyl-)-xanthine]
- percentage improvement compared with the placebo controls [1]: 39%
- inhibition in vivo at 10 mg/kg [1]: 28%

SMILES: CCCn1cnc2c1c(=O)n(CCCCC(C)=O)c(=O)n2C [1-(5-Oxohexyl)-3-methyl-7-propylxanthine]
- percentage improvement compared with the placebo controls [1]: 56%
- inhibition in vivo at 10 mg/kg [1]: 42%

SMILES: CC(O)CCCCn1cnc2c1c(=O)n(C(C)C)c(=O)n2C (stereo not drawn) [1-(Isopropyl)-3-methyl-7-(5-hydroxy-hexyl-)-xanthine]
- percentage improvement compared with the placebo controls [1]: 36%
- inhibition in vivo at 10 mg/kg [1]: 31%

SMILES: CCn1c(=O)c2c(ncn2CCCCC(C)=O)n(CC)c1=O [1-Ethyl-3-ethyl-7-(5-oxohexyl-)-xanthine]
- percentage improvement compared with the placebo controls [1]: 48%
- inhibition in vivo at 10 mg/kg [1]: 41%

SMILES: CCCCCCn1c(=O)c2c(ncn2C)n(C)c1=O [1-Hexyl-3,7-dimethylxanthine]
- percentage improvement compared with the placebo controls [1]: 46%
- inhibition in vivo at 10 mg/kg [1]: 39%

SMILES: CCCn1c(=O)c2c(ncn2CCCCC(C)O)n(C)c1=O (stereo not drawn) [1-Propyl-3-methyl-7-(5-hydroxyhexyl-)-xanthine]
- percentage improvement compared with the placebo controls [1]: 42%
- inhibition in vivo at 10 mg/kg [1]: 35%

SMILES: CCCCn1c(=O)c2c(ncn2CC(C)=O)n(CCCC)c1=O [1-n-Butyl-3-n-butyl-7-(2-oxopropyl-)-xanthine]
- percentage improvement compared with the placebo controls [1]: 50%
- inhibition in vivo at 10 mg/kg [1]: 33%

SMILES: CC(=O)Oc1ccccc1C(=O)O [DL-Lysine monoacetylsalicylate, D,L-lysine monoacetylsalicylate]
- Aggregation amplitude E ex vivo (platelet aggregation; I, at 30 min, 1,5 mg/kg i.v. at 15 min): 23,5
- Aggregation amplitude E ex vivo (platelet aggregation; I, at 45 min, 1,5 mg/kg i.v. at 15 min and 0,5 mg/kg at 35 min): 19,5

SMILES: CC(=O)CCCCn1c(=O)c2c(ncn2C)n(C)c1=O [Pentoxifylline, 1-(5-oxohexyl)-3,7-dimethylxanthine]
- Changes from controls, % ([1]; 5 mg/kg oral): 21%
- Changes from controls, absolute ([1]; 5 mg/kg oral): 0,46
- Number of shots ([1]; 5 mg/kg oral): 2,63
- Changes from controls, % ([1]; 10 mg/kg oral): 54%
- Changes from controls, absolute ([1]; 10 mg/kg oral): 1,16
- Number of shots ([1]; 10 mg/kg oral): 3,33
- Changes from controls, % ([1]; 30 mg/kg oral): 83%
- Changes from controls, absolute ([1]; 30 mg/kg oral): 1,8
- Number of shots ([1]; 30 mg/kg oral): 3,97
- -x (number of shots) ([1]; Table 1b, 10 mg/kg pentoxifylline orally without acetylsalicylic acid): 3,27
- % change from controls ([1]; Table 1b, 10 mg/kg pentoxifylline orally without acetylsalicylic acid, p < 0,05): +49%
- effect in laser-induced thrombosis ([1]; oral dose 10 mg/kg): significant effect
- effect in laser-induced thrombosis ([1]; single oral dose 5 mg/kg): not significant
- inhibition of thrombus formation ([1]; single oral dose 5 mg/kg): 20%
- Aggregation amplitude E ex vivo (platelet aggregation; III, at 45 min, 10 mg/kg i.v. at 15 min): 22
- Aggregation amplitude E ex vivo (platelet aggregation; III, at 120 min, 10 mg/kg i.v. at 15 min and 10 mg/kg at 60 min): 20
- erythrocyte filterability ([2]; 30 mg): 79%
- erythrocyte filterability in arthritic rats (in words) [2]: can be increased again
- tendency to thrombosis (number of shots) [3]: 87%
- induced platelet aggregation [4]: 94%
- Percentage improvement, volume of paw edema, left paw [5]: 3%
- Percentage improvement, volume of paw edema, right paw [5]: 0%
- deformability of the erythrocytes (erythrocytes): improved
- in vitro aggregation of platelets (platelets): can be inhibited
- release of a substance having antiaggregatory activity (rat aortas): can be increased
